Experimental data published in publication PMC6431521, “Synthesis and Evaluation of ^18F-Labeled Peptide for Gonadotropin-Releasing Hormone Receptor Imaging” (Contrast Media & Molecular Imaging, 2019).

Target: T1, human GnRH membrane preparations (GnRH receptor) (Homo sapiens, UniProt P30968)
T1 construct: purchased Millipore ChemiScreen HTS027M
T1 sequence (P30968 1-328): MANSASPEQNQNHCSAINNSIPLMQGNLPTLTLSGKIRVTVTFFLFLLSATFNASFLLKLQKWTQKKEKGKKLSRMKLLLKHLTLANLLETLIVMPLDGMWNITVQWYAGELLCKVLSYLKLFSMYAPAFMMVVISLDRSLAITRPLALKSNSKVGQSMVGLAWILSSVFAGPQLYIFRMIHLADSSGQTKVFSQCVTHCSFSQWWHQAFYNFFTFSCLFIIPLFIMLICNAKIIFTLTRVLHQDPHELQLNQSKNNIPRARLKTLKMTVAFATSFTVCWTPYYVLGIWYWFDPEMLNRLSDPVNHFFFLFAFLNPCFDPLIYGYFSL
Assay: In vitro competitive GnRH receptor binding assay
Settings: for IC50: competitive binding, Millipore ChemiScreen human GnRH membrane preparations, radioligand [131I](His5, D-Tyr6)GnRH, 10^-11 to 10^-5 M peptide, room temperature 1.5 h, pH 7.4, gamma counter, n=3, read-out: GnRH receptor binding affinity IC50
Protocol: GnRH membrane preparations were obtained from Millipore ChemiScreen (HTS027M). The GnRH receptor binding affinities (IC50 values) of FP-D-Lys^6-GnRH, D-Lys^6-GnRH, and NOTA-P-D-Lys^6-GnRH were determined by in vitro competitive binding assay according to the manufacturer's protocol. In brief, 5 μL of Millipore ChemiScreen human GnRH membrane preparations was incubated at room temperature for 1.5 h with approximately 20,000 counts per minute (cpm) of [^131I](His^5, D-Tyr^6)GnRH in the presence of 10^−11 to 10^−5 M of each peptide in 95 μL of binding buffer (50 mM HEPES, 5 mM MgCl2, 1 mM CaCl2, 0.2% BSA, buffer to pH 7.4 using 1 M NaOH). After the incubation, 600 μL of ice-cold washing buffer (50 mM HEPES, 500 mM NaCl, 0.1% BSA, buffer to pH 7.4 using 1 M NaOH) was added to each mixture. Each resulting mixture was filtered through a GF/C filter (Whatman, Clifton, NJ) presoaked in 0.33% polyethylenimine. Each filter was rinsed with 1 mL of ice-cold wash buffer six times. The activities on the filters were measured in a gamma counter (γ-counter).
The GnRH receptor affinities for FP-D-Lys^6-GnRH, D-Lys^6-GnRH, and NOTA-P-D-Lys^6-GnRH were determined using human GnRH membrane preparations and [^131I](His^5, D-Tyr^6)GnRH as the radioligand.

[1] = ratio of IC50 values, GnRH receptor binding

Row | SMILES | IC50 | Potency higher than the reference D-Lys6-GnRH [1] | Decrease of GnRH receptor binding affinity versus D-Lys6-GnRH [1]
1 | CC(C)C[C@H](NC(=O)[C@@H](CCCCN)NC(=O)[C@H](Cc1ccc(O)cc1)NC(=O)[C@H](CO)NC(=O)[C@H](Cc1c[nH]c2ccccc12)NC(=O)[C@H](Cc1cnc[nH]1)NC(=O)[C@@H]1CCC(=O)N1)C(=O)N[C@@H](CCCNC(=N)N)C(=O)N1CCC[C@H]1C(=O)NCC(N)=O [D-Lys^6-GnRH, reference compound] | 15.8 nM | – | –
2 | CC(C)C[C@H](NC(=O)[C@@H](CCCCNC(=O)C(C)F)NC(=O)[C@H](Cc1ccc(O)cc1)NC(=O)[C@H](CO)NC(=O)[C@H](Cc1c[nH]c2ccccc12)NC(=O)[C@H](Cc1c[nH]cn1)NC(=O)[C@@H]1CCC(=O)N1)C(=O)N[C@@H](CCCNC(=N)N)C(=O)N1CCC[C@H]1C(=O)NCC(N)=O (stereo partly drawn) [FP-D-Lys^6-GnRH] | 2 nM | approximately 8 fold | –
3 | CC(C)C[C@H](NC(=O)[C@@H](CCCCNC(=O)CCOCCOCCOCCNC(=O)CN1CCN(CC(=O)O)CCN(CC(=O)O)CC1)NC(=O)[C@H](Cc1ccc(O)cc1)NC(=O)[C@H](CO)NC(=O)[C@H](Cc1c[nH]c2ccccc12)NC(=O)[C@H](Cc1c[nH]cn1)NC(=O)[C@@H]1CCC(=O)N1)C(=O)N[C@@H](CCCNC(=N)N)C(=O)N1CCC[C@H]1C(=O)NCC(N)=O [NOTA-P-D-Lys^6-GnRH] | – | – | approximately 4 fold
